Tested on: Bacillus subtilis B1, B2, and B3 strains
Assay: PCR with primers for unique signature sequences
Conditions: amplicon generated by the forward/reverse primer pair (LSBS n-F / n-R) specific for Bacillus subtilis B1, B2, B3 strains
Description: Table 7 below depicts thirteen (13) pairs of primers specifically designed for the Bacillus subtilis B1, B2, and B3 strains. All 13 primers generate unique PCR amplicons for identifying the Bacillus subtilis strains of the present invention. The subsequent PCR products are unique and are not found performing a search (i.e., BLAST search) in a database such as the GenBank database.

Substance	PCR Product Size (bp)
LSBS 10-F (DNA CAGATGAAGTTGGTGGTGTTTC; listed as DNA, chemistry not given here)	743
LSBS 2-F (DNA TCAATTCCTCTGCACCACTTAT; listed as DNA, chemistry not given here)	906
LSBS 1-F (DNA GGACACAGATCATTGGGAGTT; listed as DNA, chemistry not given here)	769
LSBS 11-F (DNA ATGCGGCTAGACATGGATATG; listed as DNA, chemistry not given here)	687
LSBS 3-F (DNA CGGAGTTTGTTAGCGAAGTTATTG; listed as DNA, chemistry not given here)	543
LSBS 7-F (DNA CCTCTGCCCAAGACATATCAA; listed as DNA, chemistry not given here)	913
LSBS 13-F (DNA CCCTCTAGCTCTTTCTTCTTCAC; listed as DNA, chemistry not given here)	496
LSBS 12-F (DNA TGTCCCTCTTTAGGTGCTATTG; listed as DNA, chemistry not given here)	954
LSBS 4-F (DNA CATGCGGAACTCCAATTTCTTC; listed as DNA, chemistry not given here)	263
LSBS 5-F (DNA CCATTAGGGTCAACATGGTCTAA; listed as DNA, chemistry not given here)	273
LSBS 9-F (DNA GCCATCAGGCTGTTTGTAGA; listed as DNA, chemistry not given here)	679
LSBS 6-F (DNA CACCGAACTCTGCTGAGAAA; listed as DNA, chemistry not given here)	523
LSBS 8-F (DNA GCTGTAGACGACTGGGTACTA; listed as DNA, chemistry not given here)	750
